Source: publication PMC8097893, “Investigating the effects of two novel 4-MMPB analogs as potent lipoxygenase inhibitors for prostate cancer treatment” (Journal of Biological Research, 2021)
Read-outs that look alike come from different tables or passages of the source.

Key:
soybean LOX-1 [1] = target: T1, soybean LOX-1 (Glycine max, UniProt P08170); assay: Soybean LOX-1 enzyme inhibitory assessment (DMAB-MBTH colour assay, linoleic acid substrate); assay type: biochemical; settings: from sigmoidal dose-response curves, n = 3; read-out: IC50, soybean LOX-1 inhibition
T1 construct: purchased Sigma-Aldrich
T1 sequence (P08170 1-839): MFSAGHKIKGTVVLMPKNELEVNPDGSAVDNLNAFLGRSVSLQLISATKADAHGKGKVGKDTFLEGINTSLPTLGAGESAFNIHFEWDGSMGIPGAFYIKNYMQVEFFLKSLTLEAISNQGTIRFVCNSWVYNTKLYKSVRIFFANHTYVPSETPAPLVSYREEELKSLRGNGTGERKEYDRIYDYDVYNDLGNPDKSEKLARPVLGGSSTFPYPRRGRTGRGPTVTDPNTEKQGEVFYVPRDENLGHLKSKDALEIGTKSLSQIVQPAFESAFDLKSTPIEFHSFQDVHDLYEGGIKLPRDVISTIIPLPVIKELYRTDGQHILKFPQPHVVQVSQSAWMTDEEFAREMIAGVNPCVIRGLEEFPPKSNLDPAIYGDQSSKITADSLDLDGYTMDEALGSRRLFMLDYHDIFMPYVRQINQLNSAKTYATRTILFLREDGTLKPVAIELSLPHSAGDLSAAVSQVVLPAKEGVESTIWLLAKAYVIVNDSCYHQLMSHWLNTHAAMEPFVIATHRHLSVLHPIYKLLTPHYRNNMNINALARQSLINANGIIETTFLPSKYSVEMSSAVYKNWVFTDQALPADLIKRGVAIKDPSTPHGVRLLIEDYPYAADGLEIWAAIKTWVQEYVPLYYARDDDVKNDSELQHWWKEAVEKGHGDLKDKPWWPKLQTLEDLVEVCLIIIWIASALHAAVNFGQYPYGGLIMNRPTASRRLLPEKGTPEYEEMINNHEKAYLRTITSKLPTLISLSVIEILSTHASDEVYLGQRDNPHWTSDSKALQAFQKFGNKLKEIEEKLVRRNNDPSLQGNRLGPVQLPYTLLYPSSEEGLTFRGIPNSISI
Method: Linoleic acid and two assay solutions (A and B) were prepared in advance. Solution A was 50 mM 3-(dimethylamino)benzoic acid (DMAB) in l00 mM phosphate buffer (pH 7.0). Solution B was a mixture of l0 mM 3-methyl-2-benzothiazolinonehydrazone hydrochloride (MBTH; 3 ml), and hemoglobin (5 mg ml^−1, 3 ml) in 50 mM phosphate buffer at pH 5.0 (25 ml). A linoleic acid solution was prepared by mixing 5.6 mg linoleic acid with 0.5 ml methanol and then diluted with 100 mM KOH to a final volume of 5 ml (4 mM). In the assay, a solution of inhibitors in dimethyl sulfoxide (DMSO) (12.5 μl), soybean LOX-1 (4000 units ml^−1 in 50 mM phosphate buffer pH 7.0; 25 μl), and phosphate buffer, pH 7.0 (50 mM; 435 μl) were mixed in 48-well plates, and pre incubation was carried out for 10 min at 30 °C. A control test was performed with the same volume of DMSO. After the pre incubation, linoleic acid solution (25 μl) was added to start the peroxidation reaction at 30 °C, and 10 min later, solution A (135 μl) and then solution B (65 μl) were added to start the color formation. After 3 min, 100 μl of a 2% sodium dodecyl sulphate (SDS) solution was added to terminate the reaction. The absorbance at 598 nm was compared with the control. These experiments were performed in triplicate and the data were analyzed using GraphPad Prism 6.0 (San Diego, USA).
Lipoxygenase inhibitory activity of 4-MMPB and its analogs was assessed on soybean LOX-1 and the inhibitory potencies (IC50 values) of the mentioned compounds were calculated from their sigmoidal dose–response curves (Fig. 2).

PC-3 cells [2] = assay: MTT cytotoxicity assay on PC-3 cells; assay type: cell-based, human; settings: PC-3, MTT
Method: (§1) Two mg of each compound was dissolved in 100 μl hydrochloric acid (HCl 0.3 N) to make a primary stock solution. Different concentrations (1.56–50 μg ml^−1) were then prepared by serial dilution from the primary stock solution and further diluted in the culture medium.
(§2) PC-3 cells were obtained from Pasteur Institute (Tehran, Iran) and routinely cultured in RPMI 1640 supplemented with 10% FBS. In order to investigate the toxicity of the compounds on normal cells, in vitro experiments were also performed on HDF cells. These cells were kindly provided by Academic Center for Education, Culture and Research (ACECR, Mashhad, Iran) and grown in DMEM supplemented with 10% FBS. Both cell lines were kept at 37 °C containing 5% CO2 in a humidified incubator.
(§3) The MTT reduction assay is a standard quantitative method to evaluate cytotoxicity. This assay measures cellular dehydrogenases, and is considered as an easy, safe and highly reproducible method. Viable cells reduce yellow tetrazolium salt to purple formazan crystals and thus the color change serves as a marker reflecting cell viability.
(§4) PC-3 and HDF cells were seeded in 96-well plates (NEST, China) at a density of 6000 and 8000 cells per well, respectively and incubated at 37 °C with 5% CO2. […] After 24, 48 and 72 h of treatments, 20 μl MTT solution (5 mg ml^−1 in PBS; phosphate buffered saline) was added to each well, and cells were incubated in the dark for 3–4 h. The media were then removed and purple crystals were dissolved in 160 μl DMSO. The absorbance in each well was measured at 540 nm as reference wavelength in an enzyme-linked immunosorbent assay (ELISA) reader (Awareness Technology, USA) and relative optical density (OD) values were recorded. The percentage of viable cells was calculated using the following equation [49]: Cell viability%=100×ODmeanof treated cells-ODmeanblank/ODmeanof negative control cellsHCl0.3 N-ODmeanblank.

HDF cells = assay: MTT cytotoxicity assay on HDF normal cells; assay type: cell-based, human
Method: as §1, §2, §3, §4

PC-3 tumors = assay: Anti-tumor effect in PC-3 xenograft tumor model in immunocompromised C57BL/6 mice
[3] = In vivo side effects evaluation (body weight, serum biochemistry, H&E histology); set-up: species or system C57BL/6 mice; settings: for serum AST and ALT levels: 50 mg kg^-1, compared with immunosuppressed control group; for histological analysis of major organs (liver, kidney, spleen): H&E, day 15 after treatments
PC-3 cells [4] = assay: Flow cytometric analysis of cell death (Annexin V-FITC/PI) in PC-3 cells; assay type: cell-based, human; settings: for change of Q2 (Annexin V positive/PI positive) population after co-treatment with deferoxamine: PC-3, compared with compound only; for percentage of early and late apoptotic/ferroptotic cells (Q3+Q2): PC-3, treated with IC50 value of the compound, 24 h, control 0.133%
Method: To determine the mechanism of cell death induced by 4-MMPB analogs, flow cytometry was employed using the Annexin V-FITC kit with PI (BioLegend, San Diego, USA) according to the manufacturer’s instructions. We performed co-treatment experiments with the compounds and a ferroptosis inhibitor (IC50 values of 4-PMPB + , 4-EMPB + , and 4-MMPB + deferoxamine (80 µM)) on PC-3 cells, to distinguish between ferroptosis and apoptosis mechanisms. […] Then the cells were collected by trypsinization (0.25% trypsin-1 mM EDTA), washed twice with PBS, followed by centrifugation, and resuspended in a binding buffer. Samples were stained with Annexin V-FITC/ PI followed by 15 min incubation at room temperature. Finally, cells were subjected to flow cytometry (BD Accuri C6, San Jose, USA) and the data were analyzed by FlowJo 7.6.1 software (Ashland, USA). Moreover, PC-3 cells treated with 0.3 N HCl were used as a control to eliminate the effects of solvent.

15-lipoxygenase = target: 15-lipoxygenase; set-up: method as in PMID 17210254; settings: read-out: IC50, 15-lipoxygenase inhibition; cited from earlier work
soybean LOX-1 [5] = target: T1, soybean LOX-1; set-up: method as in doi:10.1007/s00044-013-0506-7; settings: read-out: IC50 against soybean LOX-1; cited from earlier work
15-LOX-1 = settings: read-out: IC50 against 15-LOX-1; cited from earlier work
[6] = high dose 50 mg kg^-1, 15 days, vs PBS and 0.3 N HCl controls
[7] = 10 and 50 mg kg^-1, 15 days follow up
[8] = 24 h, read-out: IC50 (µM) ± SD (PC-3) 24 h
[9] = 48 h, read-out: IC50 (µM) ± SD (PC-3) 48 h
[10] = 72 h, read-out: IC50 (µM) ± SD (PC-3) 72 h
[11] = 24 h, read-out: IC50 (µM) ± SD (HDF) 24 h
[12] = 48 h, read-out: IC50 (µM) ± SD (HDF) 48 h
[13] = 72 h, read-out: IC50 (µM) ± SD (HDF) 72 h

Row | SMILES | IC50 (soybean LOX-1 [1]) [µM] | cytotoxicity on normal (HDF) cells, in words (HDF cells) | tumor growth (PC-3 tumors; [6]) | serum AST and ALT levels [3] | body weight [3, 7] | histological analysis of major organs (liver, kidney, spleen) [3] | change of Q2 (Annexin V positive/PI positive) population after co-treatment with deferoxamine (PC-3 cells [4]) | percentage of early and late apoptotic/ferroptotic cells (Q3+Q2) (PC-3 cells [4]) [%] | IC50 (PC-3 cells [2]; [8]) [µM] | IC50 (PC-3 cells [2]; [9]) [µM] | IC50 (PC-3 cells [2]; [10]) [µM] | IC50 (HDF cells; [11]) [µM] | IC50 (HDF cells; [12]) [µM] | IC50 (HDF cells; [13]) [µM] | also measured
1 | CCc1nc(N2CCN(C)CC2)nc2c1Nc1ccccc1S2 [4-EMPB, 4-Ethyl-2-(4-methylpiperazinyl)pyrimido[4,5-b]benzothiazine] | 14.3 | weak cytotoxicity | effectively inhibited | significantly elevated | no significant changes | no obvious tissue damages | markedly decreased | 60.9 |  |  |  |  |  |  | IC50 (PC-3 cells [2]; Homo sapiens, 24 h, read-out: IC50 (µM) ± SD (PC-3) 24 h): 107 ± 6.17 µM; IC50 (PC-3 cells [2]; Homo sapiens, 48 h, read-out: IC50 (µM) ± SD (PC-3) 48 h): 75 ± 3.39 µM; IC50 (PC-3 cells [2]; Homo sapiens, 72 h, read-out: IC50 (µM) ± SD (PC-3) 72 h): 49 ± 6.76 µM; IC50 (HDF cells; Homo sapiens, 24 h, read-out: IC50 (µM) ± SD (HDF) 24 h): 545.5 ± 1.99 µM; IC50 (HDF cells; Homo sapiens, 48 h, read-out: IC50 (µM) ± SD (HDF) 48 h): 361.7 ± 2.29 µM; IC50 (HDF cells; Homo sapiens, 72 h, read-out: IC50 (µM) ± SD (HDF) 72 h): 258.9 ± 1.86 µM
2 | Cc1nc(N2CCN(C)CC2)nc2c1Sc1ccccc1N2 [4-MMPB, 4-Methyl-2-(4-methylpiperazinyl)pyrimido[4,5-b]benzothiazine] | 17.1 | weak cytotoxicity | effectively inhibited | significantly elevated | no significant changes | no obvious tissue damages | markedly decreased | 41.5 | 101 ± 2.41 | 55.6 ± 1.98 | 40.8 ± 1.79 | 331 ± 3.33 | 284 ± 2.98 | 186 ± 2.81 | IC50 (15-lipoxygenase): 18 µM
3 | CCCc1nc(N2CCN(C)CC2)nc2c1Sc1ccccc1N2 [4-PMPB, 4-propyl-2-(4-methylpiperazinyl)pyrimido[4,5-b]benzothiazine] | 8.6 | no obvious cytotoxicity | effectively inhibited | significantly elevated | no significant changes | no obvious tissue damages | markedly decreased | 52.38 | 122 ± 2.62 | 88.5 ± 2.31 | 57.6 ± 2.12 | 1641.1 ± 0.075 | 1443.7 ± 0.055 | 1028.9 ± 0.139 | IC50 (soybean LOX-1 [5]): 9 µM
4 | CC(C)=CCCC(C)=CCCC(C)=CCOc1cccc2oc(=O)ccc12 [5-farnesyloxycoumarin] |  |  |  |  |  |  |  |  |  |  |  |  |  |  | IC50 (15-LOX-1): 8.32 µM
5 | N.N.[Cl][Pt][Cl] [Cisplatin, cisplatin, reference compound] |  |  |  |  |  | mild and local accumulation of inflammatory cells |  | 67.8 | 62.3 ± 1.74 | 51.5 ± 1.43 | 41.6 ± 1.11 | 153 ± 2.89 | 119 ± 2.56 | 71.1 ± 3.34 | tumor growth (PC-3 tumors; cisplatin 2 mg kg^-1, 15 days, vs controls and lower-dose groups): significant decrease; serum liver enzymes ([3]; cisplatin 2 mg kg^-1, compared to control group, p < 0.0001): significantly increased; body weight ([3]; cisplatin 2 mg kg^-1, day 15, p < 0.01 vs other experimental groups): lowest body weights
